# Reference: patent publication US9340559B2, “Proteasome inhibitor delanzomib for use in the treatment of lupus” (Cephalon, Inc., priority 2011, dated 2016)
# Assays:
# NZM mice [1] = assay: Antibody secreting B-cell Elispot (anti-chromatin, total IgG ASC), spleens of NZM mice (Example 2); format: in vivo, mouse
# Experimental: (§1) FIG. 34 depicts the frequency of anti-chromatin antibody secreting cells in the spleens of NZM mice. NZM treated mice spleens were processed for splenocytes for ex vivo Elispot assays. Elispot wells were coated with 10 μg/mL of boiled chicken chromatin or ovalbumin protein. Fresh, whole splenocytes were added to each well at 50,000 cells per well in cell culture medium. Cells were incubated overnight at 37° C. Developed wells provided spots that were counted as frequency of ASCs per million splenocytes.
# as §1, with “35” for “34”, “total IgG” for “anti-chromatin”, “anti-mouse IgG, IgH, and IgL chains.” for “boiled chicken chromatin or ovalbumin protein.”
# B-cell Elispot components are ordered from MabTech (Nacka Strand, Sweden) and nitrocellulose IP filter plates are ordered from Millipore (Billerica, Mass.). Elispot wells are coated with either purified bovine thymus dsDNA (Sigma), purified bovine Smith antigen (GenWay) or boiled filtered purified chicken chromatin from lysed chicken red blood cells (Rockland, Gilbertsville, Pa.) at 10 μg/mL. Spleens are processed using glass homogenization (frosted slides). Dispersed cell contents are washed in sterile HBSS and RBCs lysed using 1×RBC lysis buffer (BioLegend, Cat #420301). Processed splenocytes are added to each well and are not stimulated with lipopolysaccharide (LPS) to avoid skewing of true ex vivo frequencies of antibody-secreting cell types (ASCs). Anti-mouse pan-IgG is used as a positive control for total IgG producing ASCs and is used to normalize results. Frequencies for each antigen are identified in an initial test phase for each model. For chromatin and total IgG only, 30,000 splenocytes are added to each well; for Smith antigen and dsDNA, 500,000 cells are added to each well. Different numbers of splenocytes are added for different antigens due to saturation limits of spot frequencies per well. B-cell Elispots are incubated overnight at 37° C. To develop each assay, secondary antibody is added to each well, incubated, washed and alkaline phosphatase strepavidin (Jackson ImmunoResearch, West Grove, Pa.) is used as the conjugate; substrate used is BCIP-NBT (MabTech, Cincinnati, Ohio). Plates are developed until spots are visible. All Elispot analyses are performed using an Immunospot C.T.L. scanner and Biospot software (Cellular Technology Ltd., Shaker Heights, Ohio). Results are shown as values from which media and cells only wells are subtracted. Some values are negative due to high background.
# MRL/lpr mice [2] = assay: Lymphomegaly (enlarged lymph nodes), MRL/lpr mice; format: in vivo, mouse; settings: for lymphomegaly decrease compared to vehicle: iv
# Experimental: FIG. 4 depicts lymphomegaly for MRL/lpr mice across treatment groups for the study duration. MRL/lpr mice were treated as outlined in the legend. Lymphomegaly or presence of enlarged lymph nodes were observed weekly and noted.
# Mice are tracked on an individual basis.
# Vehicle alone is provided orally twice weekly (p.o.). Both proteasome inhibitors are suspended in the vehicle solution. […] In addition, urine proteinuria is determined for all animals.
# Vehicle was 3% DMSO/10% Solutol/87% PBS.
# NZM mice [3] = assay: Body weight progression, NZM mice (Example 2); format: in vivo, mouse
# MRL/lpr mice [4] = assay: Survival / mortality, MRL/lpr mice (Example 1); settings: for EOS survival, true EOS mouse percentage from starting population: vehicle 92
# Experimental: Six week old lupus-prone, female, MRL/lpr (Jackson Labs, #000485) and non-lupus prone control MRL/MpJ (Jackson Labs, #000486) mice are obtained from Jackson Laboratories (Bar Harbor, Me.) at 6-weeks of age. All mice are maintained on a 24 hour light/dark cycle, with food and water available ad libitum. All experimental animal procedures are approved by and in accordance to the regulations of the Institutional Animal Care and Use Committee (IACUC) of Cephalon, Inc; approved IACUC protocol #03-040 and #03-03-041.
# Due to this impaired tolerance mechanism, a percentage of all T and B cells that enter the periphery have a high likelihood of responding to self protein/tissues and thus initiate autoimmunity early in life. The MRL/lpr model mice develop several chronic inflammatory disease-like symptoms that are characteristic of early and late lupus including the generation of anti-nuclear antibodies, arthritis, dermatological manifestations, immunocomplex-mediated glomerulonephritis leading to proteinuria and eventual death. Lesser characterized phenomenon are CNS and cardiac manifestations, both of which are more common in humans. […] Mortality is higher in the females and occurs around 25 weeks of age, renal disease includes glomerulonephritis, glomerular infiltrates, sclerosis and vasculitis. Both splenomegaly and lymphomegaly associated with dermatitis can also be observed.
# MRL/lpr mice are first randomized, initial bleeds collected, and body weights recorded for baseline measurements (FIG. 1). All mice are individually ear tagged and are monitored throughout the entire experiment (e.g., “Group#-Cage letter-Mouse#”, so “3B5”=Group 3 (G3), cage B, mouse #5). Mice are age-matched and treatment started at 6-8 weeks of age. Cheek bleeds and urine collection continues weekly throughout the experiment. Mice are individually tracked for several parameters including cytokine and ANA levels, proteinuria, body mass, lymphomegaly, general health, and mortality. All parameters are evaluated bi-monthly except mortality which is monitored daily. All groups consist of a minimum of at least 10-12 mice per group. Ex vivo experiments include flow cytometry analyses for plasma cells, serum complement C3 and ANA levels; urine protein and leukocytes, serum cytokine profiling, renal histo pathology, and determination of compound levels (pharmacokinetics (PK)) in the spleen, kidney and plasma. Mice are tracked on an individual basis. For all data, mice are grouped into populations and data graphed as mean±SEM. End-stage readouts are analyzed as described in the MATERIALS AND METHODS section (above) and in FIG. 1.
# Vehicle alone is provided orally twice weekly (p.o.). Both proteasome inhibitors are suspended in the vehicle solution. Bi-monthly bleeds and urine are collected and frozen at […] until assayed. End analyses include kidney histology, splenocyte B-cell Elispots, flow cytometry for B and T cell populations, PD markers, serum cytokines, antibody and complement levels. In addition, urine proteinuria is determined for all animals.
# In group two (G2), COMPOUND A was administered at a dose of 3 mg/kg iv twice weekly. In group three (G3), COMPOUND A was administered at a dose of 10 mg/kg p.o. twice weekly. […] In the new group five (G5), bortezomib was administered at a dose of 0.3 mg/kg iv twice weekly. Dexamethasone was administered at a dose of 1.5 mg/kg/2d (M, W, F) ip. Vehicle was 3% DMSO/10% Solutol/87% PBS. In those instances in which mice could not be injected via the iv route, agents were administered ip as noted in Table 1.
smiles,measurement,setting,value
"CC(C)C[C@H](NC(=O)[C@@H](NC(=O)c1cccc(-c2ccccc2)n1)[C@@H](C)O)B(O)O [COMPOUND A, [(1R)-1-[[(2S,3R)-3-hydroxy-2-[6-phenyl-pyridine-2-carbonyl)amino]-1-oxobutyl]amino]-3-methylbutylboronic acid]",anti-chromatin ASC decrease vs vehicle,NZM mice [1]; COMPOUND A groups,96-100%
same,"p, frequency of anti-chromatin antibody secreting cells in spleen vs G5 Bortezomib 0.3 mg/kg 1× wk ip",NZM mice [1]; G1 3 mg/kg 1× wk ip,p < 0.001
same,"p, frequency of anti-chromatin antibody secreting cells in spleen vs G6 Bortezomib 0.3 mg/kg 2× wk ip",NZM mice [1]; G1 3 mg/kg 1× wk ip,p < 0.01
same,"p, frequency of anti-chromatin antibody secreting cells in spleen vs G8 Dex 1.5 mg/kg 3× wk ip",NZM mice [1]; G1 3 mg/kg 1× wk ip,p < 0.01
same,"p, frequency of anti-chromatin antibody secreting cells in spleen vs G9 Vehicle 1× wk ip",NZM mice [1]; G1 3 mg/kg 1× wk ip,p < 0.01
same,"p, frequency of total IgG antibody secreting cells in spleen vs G5 Bortezomib 0.3 mg/kg 1× wk ip",NZM mice [1]; G1 3 mg/kg 1× wk ip,p < 0.01
same,"p, frequency of total IgG antibody secreting cells in spleen vs G7 CTX 50 mg/kg 1× wk ip",NZM mice [1]; G1 3 mg/kg 1× wk ip,p < 0.01
same,"p, frequency of total IgG antibody secreting cells in spleen vs G8 Dex 1.5 mg/kg 3× wk ip",NZM mice [1]; G1 3 mg/kg 1× wk ip,p < 0.01
same,"p, frequency of total IgG antibody secreting cells in spleen vs G9 Vehicle 1× wk ip",NZM mice [1]; G1 3 mg/kg 1× wk ip,p < 0.05
same,"ASC chromatin EOS, percent change vs vehicle","NZM mice [1]; G1 3 mg/kg ip, 1× wk",−96%
same,"ASC total IgG EOS, percent change vs vehicle","NZM mice [1]; G1 3 mg/kg ip, 1× wk",−62%
same,"p, frequency of anti-chromatin antibody secreting cells in spleen vs G5 Bortezomib 0.3 mg/kg 1× wk ip",NZM mice [1]; G2 3 mg/kg 2× wk ip,P < 0.01
same,"p, frequency of anti-chromatin antibody secreting cells in spleen vs G6 Bortezomib 0.3 mg/kg 2× wk ip",NZM mice [1]; G2 3 mg/kg 2× wk ip,p < 0.05
same,"p, frequency of anti-chromatin antibody secreting cells in spleen vs G9 Vehicle 1× wk ip",NZM mice [1]; G2 3 mg/kg 2× wk ip,p < 0.01
same,"p, frequency of total IgG antibody secreting cells in spleen vs G5 Bortezomib 0.3 mg/kg 1× wk ip",NZM mice [1]; G2 3 mg/kg 2× wk ip,p < 0.001
same,"p, frequency of total IgG antibody secreting cells in spleen vs G7 CTX 50 mg/kg 1× wk ip",NZM mice [1]; G2 3 mg/kg 2× wk ip,p < 0.01
same,"p, frequency of total IgG antibody secreting cells in spleen vs G8 Dex 1.5 mg/kg 3× wk ip",NZM mice [1]; G2 3 mg/kg 2× wk ip,p < 0.01
same,"p, frequency of total IgG antibody secreting cells in spleen vs G9 Vehicle 1× wk ip",NZM mice [1]; G2 3 mg/kg 2× wk ip,p < 0.01
same,"ASC chromatin EOS, percent change vs vehicle","NZM mice [1]; G2 3 mg/kg ip, 2× wk",−100%
same,"ASC total IgG EOS, percent change vs vehicle","NZM mice [1]; G2 3 mg/kg ip, 2× wk",−67%
same,total IgG producing ASC decrease vs vehicle,NZM mice [1]; spleen,62-67%
same,"AUC lymphomegaly, percent of non enlarged lymph nodes relative to vehicle","MRL/lpr mice [2]; G1: 3 mg/kg iv, 1× wk",71%
same,"AUC lymphomegaly, percent of non enlarged lymph nodes relative to vehicle","MRL/lpr mice [2]; G2: 3 mg/kg iv, 2× wk",34%
same,"AUC lymphomegaly, percent of non enlarged lymph nodes relative to vehicle","MRL/lpr mice [2]; G3: 10 mg/kg po, 2× wk",9%
same,lymphomegaly decrease compared to vehicle,MRL/lpr mice [2]; first value (G1: 3 mg/kg 1× wk),71%
same,lymphomegaly decrease compared to vehicle,MRL/lpr mice [2]; second value (G2: 3 mg/kg 2× wk),34%
same,"Body mass AUC, percent change vs vehicle","NZM mice [3]; G1 3 mg/kg ip, 1× wk",+9%
same,body weight increase compared to vehicle,NZM mice [3]; G1: 3 mg/kg ip once per week,9%
same,"Body mass AUC, percent change vs vehicle","NZM mice [3]; G2 3 mg/kg ip, 2× wk",+10%
same,body weight increase compared to vehicle,NZM mice [3]; G2: 3 mg/kg ip twice weekly,10%
same,increase in survival over that of vehicle,MRL/lpr mice [4]; 0.3 mg/kg iv twice weekly regimen (so in the source),8.4%
same,increase in survival over that of vehicle,MRL/lpr mice [4]; 0.3 mg/kg once weekly regimen (so in the source),5%
same,increase in survival over that of vehicle,"MRL/lpr mice [4]; 10 mg/kg oral, twice weekly regimen",8.4%
same,"EOS survival, true EOS mouse percentage from starting population","MRL/lpr mice [4]; G1: 3 mg/kg iv, 1× wk",87%
same,"EOS survival, true EOS mouse percentage from starting population","MRL/lpr mice [4]; G2: 3 mg/kg iv, 2× wk",100%
same,"EOS survival, true EOS mouse percentage from starting population","MRL/lpr mice [4]; G3: 10 mg/kg po, 2× wk",100%
same,animal mortality (mice dead out of total),"MRL/lpr mice [4]; initial G1 dose 4 mg/kg iv once weekly, at day 71",4 out of 15
"CC(C)C[C@H](NC(=O)[C@H](Cc1ccccc1)NC(=O)c1cnccn1)B(O)O [bortezomib, reference compound]","ASC chromatin EOS, percent change vs vehicle","NZM mice [1]; G3 0.3 mg/kg ip, 1× wk",−46%
same,"ASC total IgG EOS, percent change vs vehicle","NZM mice [1]; G3 0.3 mg/kg ip, 1× wk",−1%
same,"ASC chromatin EOS, percent change vs vehicle","NZM mice [1]; G4 0.3 mg/kg ip, 2× wk",−74%
same,"ASC total IgG EOS, percent change vs vehicle","NZM mice [1]; G4 0.3 mg/kg ip, 2× wk",−31%
same,"AUC lymphomegaly, percent of non enlarged lymph nodes relative to vehicle","MRL/lpr mice [2]; G4: 0.5 mg/kg iv, 1× wk",13%
same,"AUC lymphomegaly, percent of non enlarged lymph nodes relative to vehicle","MRL/lpr mice [2]; G5: 0.3 mg/kg iv, 2× wk",21%
same,effect on lymphomegaly,MRL/lpr mice [2]; bortezomib treatment groups,did not significantly reduce lymphomegaly
same,"Body mass AUC, percent change vs vehicle","NZM mice [3]; G3 0.3 mg/kg ip, 1× wk",+13%
same,"Body mass AUC, percent change vs vehicle","NZM mice [3]; G4 0.3 mg/kg ip, 2× wk",+11%
same,decrease in survival over that of vehicle at EOS,MRL/lpr mice [4]; 0.3 mg/kg iv twice weekly,19%
same,decrease in survival over that of vehicle at EOS,MRL/lpr mice [4]; 0.5 mg/kg iv once weekly,2%
same,"EOS survival, true EOS mouse percentage from starting population","MRL/lpr mice [4]; G4: 0.5 mg/kg iv, 1× wk",90%
same,"EOS survival, true EOS mouse percentage from starting population","MRL/lpr mice [4]; G5: 0.3 mg/kg iv, 2× wk",73%
same,tolerability of initial dose,MRL/lpr mice [4]; initial G4 dose 0.5 mg/kg iv twice weekly,animal mortality
"C[C@@H]1C[C@H]2[C@@H]3CCC4=CC(=O)C=C[C@]4(C)[C@@]3(F)[C@@H](O)C[C@]2(C)[C@@]1(O)C(=O)CO [dexamethasone, Dexamethasone, reference compound]","ASC chromatin EOS, percent change vs vehicle","NZM mice [1]; G5 1.5 mg/kg ip, 3× wk",−42%
same,"ASC total IgG EOS, percent change vs vehicle","NZM mice [1]; G5 1.5 mg/kg ip, 3× wk",+19%
same,"p, frequency of total IgG antibody secreting cells in spleen vs G7 CTX 50 mg/kg 1× wk ip",NZM mice [1]; G8 1.5 mg/kg 3× wk ip,p < 0.01
same,"AUC lymphomegaly, percent of non enlarged lymph nodes relative to vehicle","MRL/lpr mice [2]; G6: 1.5 mg/kg ip, 3× wk",22%
same,"Body mass AUC, percent change vs vehicle","NZM mice [3]; G5 1.5 mg/kg ip, 3× wk",−1%
same,"EOS survival, true EOS mouse percentage from starting population","MRL/lpr mice [4]; G6: 1.5 mg/kg ip, 3× wk",83%
